Reference: patent US12441693B2, “Targeting STAT sumoylation to enhance immune responses” (THE GEORGE WASHINGTON UNIVERSITY, priority 2018, dated 2025)

Assays:
[1] = system: STAT5 transcriptional activity; assay: Primary cell screening assay (CD69 expression, STAT5 transcriptional activity); type: cell-based; conditions: primary human CD4 T cells
Procedure: It was observed that the ability of different benzotriazole and benzotriazin derivatives to increase STAT5 phosphorylation correlated with the ability of the compounds to induce the expression of CD69 (a STAT5 target gene) (FIG. 2A) but not CD25 (FIG. 2B) in the surface of human CD4 T cells. Based on these findings, a primary cell screening assay was set up according to FIG. 2C to identify derivatives with similar activity. As an example, flow cytometry was performed to isolated activated cells (FIG. 2D), which were expanded in the presence of DMSO or a compound of interest (FIG. 2E), and screened for changes in the expression of CD69 (FIG. 2F).

[2] = biological target: T1, STAT5 (Homo sapiens, UniProt P42229); assay: Cellular thermal shift assay (CETSA) in 293FT-STAT5A cell lysates; type: binding
T1 construct: expressed in transfected cells; host or cells: 293FT HEK cells expressing STAT5A (293FT-STAT5A)
T1 sequence (P42229 1-794): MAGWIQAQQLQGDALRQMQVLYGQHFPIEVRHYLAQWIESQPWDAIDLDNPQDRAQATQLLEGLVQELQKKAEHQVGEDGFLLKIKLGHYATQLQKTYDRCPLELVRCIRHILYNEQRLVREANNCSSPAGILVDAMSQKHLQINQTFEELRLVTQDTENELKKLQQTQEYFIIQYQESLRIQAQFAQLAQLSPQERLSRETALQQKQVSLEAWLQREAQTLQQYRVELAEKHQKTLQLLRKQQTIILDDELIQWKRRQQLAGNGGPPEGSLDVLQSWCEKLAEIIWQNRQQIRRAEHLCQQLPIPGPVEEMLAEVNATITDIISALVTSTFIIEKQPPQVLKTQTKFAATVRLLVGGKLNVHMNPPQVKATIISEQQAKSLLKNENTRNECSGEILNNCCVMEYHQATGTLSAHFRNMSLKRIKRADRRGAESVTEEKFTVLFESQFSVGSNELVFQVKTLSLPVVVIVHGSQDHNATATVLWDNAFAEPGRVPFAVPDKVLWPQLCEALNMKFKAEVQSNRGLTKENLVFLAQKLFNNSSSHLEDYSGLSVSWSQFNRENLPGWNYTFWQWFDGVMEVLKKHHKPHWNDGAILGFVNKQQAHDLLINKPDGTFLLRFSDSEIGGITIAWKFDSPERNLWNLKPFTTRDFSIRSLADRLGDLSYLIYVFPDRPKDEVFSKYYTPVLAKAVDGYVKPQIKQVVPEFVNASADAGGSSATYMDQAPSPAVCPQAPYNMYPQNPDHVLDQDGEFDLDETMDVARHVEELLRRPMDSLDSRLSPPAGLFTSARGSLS
Description: To evaluate whether HODHBt and its analogs were directly binding to STAT5, a recently developed assay, cellular thermal shift assay (CETSA), was used. CETSA is based on the biophysical principle of ligand-induced changes in thermal stability of target proteins. As detailed in Molina & Nordlund, ANNU RE[…]. 2016; 56:141-61, the disclosure of which is hereby incorporated by reference in its entirety, the CETSA assay has been extensively used to identify drug targets using lysates, cells and tissues (FIG. 7A). After heating at different temperatures, the soluble fractions are analyzed for changes in the levels of the target protein (FIG. 7B). Binding of the compound can change the temperature at which the protein is denaturalized (FIG. 7C) leading to a change in the thermal melting curve (FIG. 7D).
First, it was addressed whether HODHBt induced a thermal shift of STAT5 using cell lysates from 293FT-STAT5A. In this assay, high drug concentrations were used to perform CETSA in cell lysates (10,000-20,000 times the IC50). […] Briefly, cell lysates were incubated with either DMSO or HODHBt for 30 minutes at 25° C. After incubation, lysates were heated from 40° C. to 75° C. in 5 degrees intervals and the insoluble fractions were eliminated by centrifugation. […]

[3] = system: K562; assay: NK cell killing of K562 cells, E:T 1:1, 4 hours; type: cell-based, human
Procedure: It was therefore hypothesized that inhibiting STAT SUMOylation may enhance the ability of IL-15 stimulated NK cells to clear the HIV latent reservoir. To test the hypothesis, NK cells were treated with DMSO, IL-15-stimulated, treated with HODHBt or IL-15-stimulated and treated with HODHBt. Cells were then tested in their ability to kill the erythroleukemia cell line K562, which lack MHC-I. In an experiment, the NK cells from two donors were co-cultured with K562 at an E:T ratio of 1:1 for 4 hours (FIG. 19A). NK cells were pretreated with IL-15, HODHBt, or a combination of both.

[4] = system: HIV-infected cultured TCM cells; assay: Killing of HIV-infected cultured TCM cells by expanded autologous NK cells; type: cell-based, human; conditions: autologous NK cells expanded with IL-2 and HODHBt
Description: As for CD8 T cells, STATS play an important role in the expansion of NK cells. As such, it was hypothesized that inhibiting STAT SUMOylation may enhance the expansion of NK cells. This has important implications for adoptive cell immunotherapies as NK cells are increasingly becoming an attractive alternative to T cell therapies. In order to address whether inhibiting STAT SUMOylation may enhance NK proliferation in vitro, NK cells were isolated from two human HIV-negative donors and expanded using Miltenyi Biotec NK MACS Medium in the presence of 500 IU/ml of IL-2 and in the presence or absence of HODHBt.

O=c1c2ccccc2nnn1O [HODHBt]
STAT5 transcriptional activity relative to HODHBt [1]: the compound with the strongest activity
EC50 ([1]; read-out: EC50 in the primary cell screening method): ~63 µM
high molecular band generated (size of STAT5 dimer) ([2]; lysates incubated with HODHBt, Western blot): approximately 188 kDa
thermal melting curve of STAT5 ([2]; lysates, 5 mM, 30 minutes at 25° C, heated 40-75° C): drastically changed the thermal melting curve of STAT5, promoting its degradation
killing of K562 by NK cells expanded with compound ([3]; NK cells expanded with IL-2 and HODHBt): retained the ability to kill the target cell line K562
killing of K562 by pretreated NK cells ([3]; NK cells pretreated with combination of IL-15 and HODHBt, E:T 1:1, 4 hours): drastic increase in the cytolytic capacity of NK cells
killing of HIV-infected cultured TCM cells by NK cells expanded with compound [4]: as well as HIV-infected cultured TCM cells from the same donor
